“Also recorded” adds a separate entry of the source.
Experiments:
[1] = system: permanent mutant population (lines derived from P1003, R0146, P1062); test: Mesotrione screening of the permanent mutant population; assay type: in vivo, rice; settings: 255.1 gm ai per acre, within twelve hours after planting
Text: A mutation breeding program was initiated to develop proprietary herbicide resistant/tolerant lines. A permanent mutant population was created by exposing approximately 10,000 seeds (estimated by the average weight of a kernel) of three rice lines including P1003, R0146, and P1062 to both mutagens sodium azide (AZ) and methyl-nitrosourea (MNU). The treated seeds were planted. Individual plants were harvested creating 8,281 potentially […] lines. The lines have been maintained as a permanent mutant population for trait screening.
Resistance to mesotrione herbicide was found by screening the permanent mutant population. All lines in the permanent mutant population were planted into a dry seed bed. Within twelve hours after planting mesotrione (Callisto®) was applied at a rate of 255.1 gm ai per acre. The field was immediately flushed with water and kept moist through periodic flushing. The seedlings grew, many were bleached white and all lines derived from R0146 died whereas plants lived from 21 lines derived from the P1003 and 2 derived from P1062 mutation populations. The HPPD gene was sequenced, and no genetic mutation was identified causing any amino acid substitutions (SEQ ID NOs: 1, 2, 3).

line PL1214418M2-73001 = test: Mesotrione trait tolerance trial; assay type: in vivo, rice; settings: 0.5x to 4x of 210 gmai/ha at 4 leaf stage, evaluated 4 weeks after application
Text: During the breeding process to develop new lines (PL1214418M2-80048 and PL1214418M2-73009) with resistance/tolerance to HPPD and ACCase herbicides, two other lines were also investigated to determine the contribution of the HPPD tolerance mutation and the HPPD tolerance native gene. The line PL1214418M2-73001 carries ACCase tolerance and only the HPPD tolerance, whereas […] PL1214418M2-73013 carries ACCase tolerance and only the HPPD native tolerance gene. These selections allow the estimation of the tolerance effect of each of the two genes required for tolerance to HPPD herbicides. The tolerance effect of each gene was measured by growing the lines in single rows including the newly developed line PL1214418M2-73009 that carries both the HPPD tolerance from the mutation and the non-induced tolerance, the HPPD tolerant line ML0831266-0309, and the non-induced parent line P1003. The field plots were sprayed at the 4 leaf stage with the HPPD herbicide mesotrione at 0.5×, 1×, 2×, and 4× multiples of the labeled application rate of 210 gmai/ha.
The plots were evaluated 4 weeks after the herbicide was applied. […] The two genes also appear to function in an additive manner as only by combining the two in the new line PL1214418M2-73009 does the tolerance level become equivalent to the original mutant line ML0831266-0309.

line PL1214418M2-80048 = test: Herbicide tolerance of the combined HPPD and ACCase line; set-up: species or system rice; settings: in vivo
Text: An early maturing group of plants was harvested as early as possible and the seeds planted in the greenhouse to help quickly advance to the F4 generation. Selections on the F3 plants were made by molecular markers flanking the HPPD tolerance mutation and native tolerance the ACCase functional mutation. Homozygous plants for all the selected genomic regions were advanced to the F5 generation. The F5 seed was confirmed to carry tolerance to ACCase herbicides and the HPPD herbicide mesotrione. Among the F5 lines PL1214418M2-80048 was selected due to a high seed yield and being homozygous for the ACCase tolerance mutation at position G2096S, the HPPD tolerance mutation, and the HPPD tolerance native gene. Seed from the line PL1214418M2-80048 was deposited at the ATCC and given a deposit number PTA-121362 (see Table 8).
Individuals with tolerance to both mesotrione and ACCase herbicides were selfed to produce F3 families and further selected for other important agronomic characters. The F3 lines were selfed and purified to derive a new line or variety with dual resistance to mesotrione and ACCase herbicides. Such lines are highly valuable as the use of both herbicides provides more complete and broad-spectrum weed control. […]

common rice weeds = test: Weed control by mesotrione in rice plots; assay type: in vivo; settings: mesotrione alone; especially pre-plant or 2x the labeled rate of 210 gmai/ha
Procedure: FIG. 6A-6B is a photograph of results of trait tolerance trials; weed control by mesotrione herbicide applied pre-planting was evaluated; the plots were planted with a hybrid of the HPPD tolerant line ML0831266-03093; just before planting, the plot on the right FIG. 6B received an application of mesotrione at 210 gmai/ha; the plot on the left FIG. 6A had no herbicide applied either pre-plant or post-emergence; pictures were taken four weeks after planting showing differences in weed appearance.
Rice is tolerant to certain ACCase inhibitor herbicides, for example cyhalofop is registered for use in rice. However other ACCase herbicides kill or severely injure rice to varying degrees. […] The applied rates of both types of herbicides giving the weed control are well within the tolerance level of the respective ACCase and HPPD tolerant lines including the combined lines carrying tolerance to both HPPD and ACCase herbicides.
Further validation of the trait involved testing the mutant line ML0831266-03093 in the presence of common rice weeds. […] This level of grass weed control was completely unexpected as mesotrione is labeled for controlling broadleaf weeds in monocot crops.

line ML0831265-01493 = test: Mesotrione tolerance trials / herbicide bioassay; assay type: in vivo, rice
Text: The mutant line is planted in rows or alternatively whole plots are planted and rows of the unmutated line (P1003) and other types of rice or whole plots are planted. Mesotrione is applied pre-emergence or alternatively it is applied post-emergence at the three to four leaf stage of the rice plants. Various rates of mesotrione are applied pre-emergence, pre-emergence followed by post-emergent, or post-emergent with a single or sequential application. Post-emergent applications are applied at the 3-4 leaf stage of the rice.
With low rates (105 gm ai/ha) of mesotrione applied both the mutant line as well as the original unmutated line survive. However, other types of rice, such as the mutant line with ACCase tolerance ML0831265-01493 and the associated unmutated line R0146 are killed at these rates of mesotrione. […] The higher tolerance to mesotrione makes the line ML0831266-03093 of commercial value as both the tolerance can be controlled or bred into new varieties and it is of a high enough level to allow commercial weed control in rice with the application of mesotrione herbicide and possibly other HPPD inhibiting herbicides (FIG. 19A initial results, FIG. 19B new results after 1 year, and FIG. 22—trial results on various rice lines).

## CS(=O)(=O)c1ccc(C(=O)C2C(=O)CCCC2=O)c([N+](=O)[O-])c1 [mesotrione]
[1]
  number of lines derived from P1003 with plants that lived: 21 lines
  number of lines derived from P1062 with plants that lived: 2 lines
  response of lines derived from R0146: died
Line PL1214418M2-73001
  tolerance to mesotrione compared with P1003 and ML0831266-0309: intermediate tolerance
Line PL1214418M2-80048
  tolerance to the herbicide: tolerance
Common rice weeds
  weed control by mesotrione: well controlled; also recorded: prevalent control; also recorded: Control of common weeds in rice was also achieved
Line ML0831265-01493; in vivo
  sensitivity to mesotrione: highly susceptible; also recorded: highly sensitive
Line ML0831265-01493; low rate 105 gm ai/ha
  survival after mesotrione: killed
